Patent US20200385371A1 (Propellon Therapeutics Inc., priority 2017, published 2020)

Key:
[1] = target: T1, WDR5 (Homo sapiens, UniProt P61964); experiment: Surface Plasmon Resonance (SPR) assay; type: binding; parameters: Full length WDR5 with an N-terminal His tag and C-terminal AviTag; His tag (N); made in house; host or cells: E. coli; details: read-out: SPR Kd
Summary of the method: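 Full-length biotinylated WDR5 (N-His, C-AviTag, E. coli) captured (~3000 RU) on streptavidin SA chip; Biacore T200. HBS-EP pH 7.4 plus 5% DMSO running buffer, 40 μl/min.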

[2] = test system: MV4-11 cells; experiment: Cell proliferation assay (ATPlite); type: cell-based; details: Homo sapiens, 120 h; MV4-11 cells, five days; read-out: GI MV411 EC50
Summary of the method: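 ATPlite luminescence after five days' culture (37° C, 5% CO2) gives viability. Compounds dosed in 10 concentrations up to 10 μM against DMSO; 1,000 cells/well seeded in Alpha-MEM/10% FBS.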

[3] = target: T1, WDR5; experiment: Fluorescence Polarization (FP) binding assay
Summary of the method: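 Buffer was pH 6.5 sodium phosphate (80 mM) with 20 mM KCl and 0.008% Triton X-100; 9-Ala-FAM probe at 20 nM used 0.05 μM WDR5 and 480/540 nm polarization, H3 (1-15) probe at 30 nM used 0.3 μM WDR5 and 485/528 nm. Quadruplicate data were hyperbola-fitted to give Kdisp.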

Structure (SMILES)	Kd [1] [nM]	EC50 [2] [nM]	IC50 [3] [nM]
C[C@@H]1CN(c2ccc(-c3c(F)cc(N4C[C@@H](C)N(C)[C@@H](C)C4)c(NC(=O)c4c[nH]c(=O)cc4C(F)F)c3F)cn2)C[C@H](C)O1 [Example 191, 4-(Difluoromethyl)-N-(3-(6-((2S,6R)-2,6-dimethylmorpholino)pyridin-3-yl)-2,4-difluoro-6-((3S,5R)-3,4,5-trimethylpiperazin-1-yl)phenyl)-6-oxo-1,6-dihydropyridine-3-carboxamide]	1.07	40.8	10.7
C[C@@H]1CN(c2cc(F)c(C3=CCN(c4ncc(C#N)s4)CC3)c(F)c2NC(=O)c2c[nH]c(=O)cc2C(F)(F)F)C[C@H](C)N1C [Example 148, N-(3-(1-(5-cyanothiazol-2-yl)-1,2,3,6-tetrahydropyridin-4-yl)-2,4-difluoro-6-((3S,5R)-3,4,5-trimethylpiperazin-1-yl)phenyl)-6-oxo-4-(trifluoromethyl)-1,6-dihydropyridine-3-carboxamide]	2.09	74.9	12.9
C[C@@H]1CN(c2cc(F)c(-c3cnc(N4CCOCC4)nc3)c(F)c2NC(=O)c2c[nH]c(=O)cc2C(F)(F)F)C[C@H](C)N1C [Example 2, N-(2,4-difluoro-3-(2-morpholinopyrimidin-5-yl)-6-((3S,5R)-3,4,5-trimethylpiperazin-1-yl)phenyl)-6-oxo-4-(trifluoromethyl)-1,6-dihydropyridine-3-carboxamide]	3.68	30.1	16.3
C[C@@H]1CN(c2cc(F)c(-c3cnc(N4C[C@H](C)O[C@@H](C)C4)nc3)c(F)c2NC(=O)c2c[nH]c(=O)cc2C(F)F)C[C@H](C)N1C [Example 120, 4-(Difluoromethyl)-N-(3-(2-((2S,6S)-2,6-dimethylmorpholino)pyrimidin-5-yl)-2,4-difluoro-6-((3S,5R)-3,4,5-trimethylpiperazin-1-yl)phenyl)-6-oxo-1,6-dihydropyridine-3-carboxamide]	1.35	2.07	12
C[C@@H]1CN(c2ccc(-c3c(F)cc(N4CCN(C)[C@@H](C)C4)c(NC(=O)c4c[nH]c(=O)cc4C(F)(F)F)c3F)cn2)C[C@H](C)O1 [Example 170, N-(3-(6-((2S,6R)-2,6-dimethylmorpholino)pyridin-3-yl)-6-((S)-3,4-dimethylpiperazin-1-yl)-2,4-difluorophenyl)-6-oxo-4-(trifluoromethyl)-1,6-dihydropyridine-3-carboxamide]	0.83	32.3	15.6
C[C@@H]1CN(c2cc(F)c(-c3ccc(C(=O)NC(C)(C)CC(C)(C)C)c(F)c3F)c(F)c2NC(=O)c2c[nH]c(=O)cc2C(F)(F)F)C[C@H](C)N1C [Example 27, 6-Oxo-N-(2,2′,3′,6-tetrafluoro-4′-((2,4,4-trimethylpentan-2-yl)carbamoyl)-4-((3S,5R)-3,4,5-trimethylpiperazin-1-yl)-[,1′-biphenyl]-3-yl)-4-(trifluoromethyl)-1,6-dihydropyridine-3-carboxamide]	1.13	221	34.8
C[C@@H]1CN(c2ccc(-c3c(F)cc(N4C[C@@H](C)N(C)[C@@H](C)C4)c(NC(=O)c4c[nH]c(=O)cc4C(F)(F)F)c3F)cn2)C[C@H](C)O1 [Example 62, N-(3-(6-((2S,6R)-2,6-dimethylmorpholino)pyridin-3-yl)-2,4-difluoro-6-((3S,5R)-3,4,5-trimethylpiperazin-1-yl)phenyl)-6-oxo-4-(trifluoromethyl)-1,6-dihydropyridine-3-carboxamide]	2.14	24.9	14.4
C[C@H]1CN(c2ncc(-c3c(F)cc(N4CCN(C)[C@@H](C)C4)c(NC(=O)c4c[nH]c(=O)cc4C(F)(F)F)c3F)cn2)C[C@H](C)O1 [Example 87, N-(3-(2-((2S,6S)-2,6-dimethylmorpholino)pyrimidin-5-yl)-6-((S)-3,4-dimethylpiperazin-1-yl)-2,4-difluorophenyl)-6-oxo-4-(trifluoromethyl)-1,6-dihydropyridine-3-carboxamide]	1.47	19.4	9.85
CC(C)[C@@H]1CN(c2ncc(-c3c(F)cc(N4C[C@@H](C)N(C)[C@@H](C)C4)c(NC(=O)c4c[nH]c(=O)cc4C(F)(F)F)c3F)cn2)CCO1 [Example 105, N-(2,4-difluoro-3-(2-((R)-2-isopropylmorpholino)pyrimidin-5-yl)-6-((3S,5R)-3,4,5-trimethylpiperazin-1-yl)phenyl)-6-oxo-4-(trifluoromethyl)-1,6-dihydropyridine-3-carboxamide]	3.89	14.3	14.7
C[C@@H]1CN(c2cc(F)c(-c3ccc(N4CCO[C@@H](C)C4)nc3)c(F)c2NC(=O)c2c[nH]c(=O)cc2C(F)(F)F)C[C@H](C)N1C [Example 192, N-(2,4-difluoro-3-(6-((S)-2-methylmorpholino)pyridin-3-yl)-6-((3S,5R)-3,4,5-trimethylpiperazin-1-yl)phenyl)-6-oxo-4-(trifluoromethyl)-1,6-dihydropyridine-3-carboxamide]	0.97	70.1	16.4

More lines, now with the values ahead:

Kd [1] [nM]	EC50 [2] [nM]	IC50 [3] [nM]	Structure (SMILES)
1.53	11.4	12.7	C[C@@H]1CN(c2cc(F)c(C3=CCN(C(=O)OC4(C)CCC4)CC3)c(F)c2NC(=O)c2c[nH]c(=O)cc2C(F)(F)F)C[C@H](C)N1C [Example 144, 1-Methylcyclobutyl 4-(2,6-difluoro-3-(6-oxo-4-(trifluoromethyl)-1,6-dihydropyridine-3-carboxamido)-4-((3S,5R)-3,4,5-trimethylpiperazin-1-yl)phenyl)-5,6-dihydropyridine-1(2H)-carboxylate]
2.32	180	14.4	C[C@H]1CN(c2cc(F)c(C3=CCN(C(=O)OC4CC(F)(F)C4)C3)c(F)c2NC(=O)c2c[nH]c(=O)cc2C(F)F)CCN1C [Example 44]
2.95	913	14.7	C[C@H]1CN(c2cc(F)c(C3=CCN(C(=O)c4csc(CN(C)C)n4)CC3)c(F)c2NC(=O)c2c[nH]c(=O)cc2C(F)F)CCN1C [Example 187, (S)-4-(difluoromethyl)-N-(3-(1-(2-((dimethylamino)methyl)thiazole-4-carbonyl)-1,2,3,6-tetrahydropyridin-4-yl)-6-(3,4-dimethylpiperazin-1-yl)-2,4-difluorophenyl)-6-oxo-1,6-dihydropyridine-3-carboxamide]
6.29	409	29.4	CC(C)OC(=O)N1CCC=C(c2c(F)cc(N3CCN(C)[C@@H](C)C3)c(NC(=O)c3c[nH]c(=O)cc3C(F)F)c2F)C1 [Example 35, Isopropyl (S)-5-(3-(4-(difluoromethyl)-6-oxo-1,6-dihydropyridine-3-carboxamido)-4-(3,4-dimethylpiperazin-1-yl)-2,6-difluorophenyl)-3,6-dihydropyridine-1(2H)-carboxylate]
2.68	332	21.7	COc1cnc(N2CCC=C(c3c(F)cc(N4CCN(C)[C@@H](C)C4)c(NC(=O)c4c[nH]c(=O)cc4C(F)F)c3F)C2)nc1 [Example 49, (S)-4-(difluoromethyl)-N-(6-(3,4-dimethylpiperazin-1-yl)-2,4-difluoro-3-(1-(5-methoxypyrimidin-2-yl)-1,2,5,6-tetrahydropyridin-3-yl)phenyl)-6-oxo-1,6-dihydropyridine-3-carboxamide]
1.58	35.4	15.2	CC(C)OC(=O)N1CC=C(c2c(F)cc(N3CCN(C)[C@@H](C)C3)c(NC(=O)c3c[nH]c(=O)cc3C(F)(F)F)c2F)CC1 [Example 39, Isopropyl (S)-4-(4-(3,4-dimethylpiperazin-1-yl)-2,6-difluoro-3-(6-oxo-4-(trifluoromethyl)-1,6-dihydropyridine-3-carboxamido)phenyl)-3,6-dihydropyridine-1(2H)-carboxylate]
0.8	83.2	11.8	COc1cnc(N2CC=C(c3c(F)cc(N4CCN(C)[C@@H](C)C4)c(NC(=O)c4c[nH]c(=O)cc4C(F)F)c3F)C2)nc1 [Example 50, (S)-4-(difluoromethyl)-N-(6-(3,4-dimethylpiperazin-1-yl)-2,4-difluoro-3-(1-(5-methoxypyrimidin-2-yl)-2,5-dihydro-1H-pyrrol-3-yl)phenyl)-6-oxo-1,6-dihydropyridine-3-carboxamide]
0.96	48.6	12.8	C[C@@H]1CN(c2ccc(-c3c(F)cc(N4C[C@@H](C)N(C)[C@@H](C)C4)c(NC(=O)c4c[nH]c(=O)cc4C(F)F)c3F)cn2)CCO1 [Example 190, N-(2,4-difluoro-3-(6-((R)-2-methylmorpholino)pyridin-3-yl)-6-((3S,5R)-3,4,5-trimethylpiperazin-1-yl)phenyl)-4-(difluoromethyl)-6-oxo-1,6-dihydropyridine-3-carboxamide]
0.56	11.8	11.8	C[C@H]1CN(c2ncc(-c3c(F)cc(N4CCN(C)[C@@H](C)C4)c(NC(=O)c4c[nH]c(=O)cc4C(F)F)c3F)cn2)CCO1 [Example 126, 4-(Difluoromethyl)-N-(6-((S)-3,4-dimethylpiperazin-1-yl)-2,4-difluoro-3-(2-((S)-2-methylmorpholino)pyrimidin-5-yl)phenyl)-6-oxo-1,6-dihydropyridine-3-carboxamide]
